Values of other authors as cited in US9265724B2, “Oral dosage form of tetrahydrocannabinol and a method of avoiding and/or suppressing hepatic first pass metabolism via targeted chylomicron/lipoprotein delivery” (priority 2005, dated 2016).

What was measured:
[1] = low aqueous solubility and high permeability

## CCCCCc1cc(O)c2c(c1)OC(C)(C)[C@@H]1CCC(C)=C[C@@H]21 [Δ^9-THC, Δ^9-tetrahydrocannabinol]
[1]
  biopharmaceutical classification system (BCS) class: Class II
After a single oral dose
  absorbed: 90-95%
After administration
  continuation of appetite stimulant effect: ≥ 24 h
After oral administration
  duration of action for psychoactive effects: 4 to 6 h
  peak effect: 2 to 4 h
oral
  administered dose that reaches systemic circulation: 10-20%
Oral dosing of 20 mg in a sesame oil formulation
  maximal plasma levels: around 10 ng/ml
